Data from patent US4753802A (Alza Corporation, priority 1986, dated 1988).
Structures can show the parent of a compound that is named as a salt. Values belong to the molecule of their own block, whether it stands above or below them.

Legend:
[1] = Osmotic pressure of saturated verapamil hydrochloride solution / of the blend of verapamil plus osmotic solute (vapor pressure osmometry); assay type: physicochemical; conditions: for π, osmotic pressure of the blend of Sd plus So: verapamil plus the osmotic solute named in the line
Description: (§1) The results of the formulation are given in the accompanying table.

[2] = Solubility of verapamil and of osmotic solutes in a common aqueous fluid
Description: as §1

[3] = Cumulative amount of verapamil released over time from formulations with osmotic solutes; assay type: physicochemical; conditions: verapamil formulated with osmotic solute at equilibrium ratio
Description: as §1

[4] = in common aqueous fluid with verapamil

- π, osmotic pressure of the blend of Sd plus So [1]: 13.9 atm
Molecule: O=C(O)CCCCC(=O)O [Adipic Acid]

- π, osmotic pressure of the blend of Sd plus So [1]: 76.8 atm
Molecule: O=C1O[C@H]([C@@H](O)CO)C(O)=C1O [Ascorbic Acid]

- So, solubility of the osmotic solute [2, 4]: 457 mg/mL
- π, osmotic pressure of the blend of Sd plus So [1]: 87.1 atm
Molecule: O=C[C@H](O)[C@@H](O)[C@@H](O)[C@H](O)CO [D-Galactose]

- π, osmotic pressure of the blend of Sd plus So [1]: 36.6 atm
Molecule: O=C(O)CCC(=O)O [Disodium Succinate]

- So, solubility of the osmotic solute ([2]; common aqueous fluid): 77 mg/mL
- π, osmotic pressure of the blend of Sd plus So [1]: 21.4 atm
Molecule: O=C(O)/C=C/C(=O)O [Fumaric Acid]

- So, solubility of the osmotic solute ([2]; common aqueous fluid): 81 mg/mL
Molecule: COc1ccccc1OCC(O)CO (stereo not drawn) [Guaifenesin, reference compound]

- π, osmotic pressure of the blend of Sd plus So [1]: 20.6 atm
Molecule: O[C@H]1[C@H](O)[C@@H](O)[C@H](O)[C@@H](O)[C@H]1O [Inositol]
- cumulative amount of verapamil released over time [3]: insufficient cumulative amount of verapamil released over time

- So, solubility of the osmotic solute ([2]; common aqueous fluid): 473 mg/mL
- π, osmotic pressure of the blend of Sd plus So [1]: 110.3 atm
Molecule: O=C[C@H](O)[C@@H](O)[C@@H](O)CO [L-Arabinose]

Molecule: O=C(O)CC(O)C(=O)O (stereo not drawn) [Malic Acid]
- So, solubility of the osmotic solute [2, 4]: 436 mg/mL

Molecule: OC[C@@H](O)[C@@H](O)[C@H](O)[C@H](O)CO [Mannitol]
- So, solubility of the osmotic solute ([2]; common aqueous fluid): 219 mg/mL
- π, osmotic pressure of the blend of Sd plus So [1]: 42.8 atm

- π, osmotic pressure of the blend of Sd plus So [1]: 100.0 atm
Molecule: O=C(O)C(O)C(O)C(=O)O (stereo not drawn) [Sodium Tartrate]

- π, osmotic pressure of the blend of Sd plus So [1]: 22.9 atm
Molecule: O=C(O)CCC(=O)O [Succinic Acid]

Molecule: COc1ccc(CCN(C)CCCC(C#N)(c2ccc(OC)c(OC)c2)C(C)C)cc1OC (stereo not drawn) [Verapamil-HCl, verapamil hydrochloride, reference compound]
- osmotic pressure of a saturated aqueous solution ([1]; at 37° C., vapor pressure osmometry): 11 atm
- π, osmotic pressure ([1]; verapamil-HCl alone): 10.9 atm
- π, osmotic pressure ([1]; verapamil-HCl in AGF): 13.0 atm
- π, osmotic pressure ([1]; verapamil-HCl in AIF): 13.3 atm

Molecule: COc1ccc(CCN(C)CCCC(C#N)(c2ccc(OC)c(OC)c2)C(C)C)cc1OC (stereo not drawn) [verapamil, reference compound]
- osmotic pressure of verapamil in the presence of mannitol ([1]; in the presence of mannitol): raised in the presence of mannitol

Molecule: Insulin: Insulin, listed as osmotic solute in the table
- So, solubility of the osmotic solute [2, 4]: 50 mg/mL
- ST, total solubility of Sd and So ([2]; verapamil plus osmotic solute in a common aqueous fluid): 197 mg/mL
